Assay results reported in article PMC12040169 (PLOS Biology, 2025).

Assay: in vitro
Details: human, hela cells, % viability

| Structure (SMILES) | viability at 28.5 h, 10 µM [%] |
| --- | --- |
| O=C(Cn1c(NCCCO)nc2ccccc21)c1cccs1 [CBK023894B] | 96.5 |
| N#Cc1ccc(C(=O)N2CCC3(CC2)NC(=O)c2cc(-c4ccoc4)ccc2O3)cc1 [CBK115852] | 88.9 |
| CS(=O)(=O)N1CC2CCCC(O)(c3cccc(F)c3)C2C1 (stereo not shown) [CBK283107] | 97.3 |
| CC(C)C(=O)N[C@H]1C[C@@H](Cc2cc(CN3CCOCC3)on2)C1(C)C [CBK289248] | 99.8 |
| Cc1ccc(S(=O)(=O)NC2c3cccc4cccc(c34)C2Sc2nncn2N)cc1 (stereo not shown) [CBK265873] | 112 |
| CCN(CC)C(=O)Cc1cc(C(=O)O)c2ccccc2n1 [CBK286942] | 104 |
| CCN(C(=O)c1ccc(=O)[nH]c1)C(CC1CCCCC1)c1ccccc1 (stereo not shown) [CBK062678] | 91.1 |
| Cc1ccccc1-c1cc(C(=O)N(C)C)c2cnn(C(C)C)c2n1 [CBK306245] | 98.6 |
| Cc1cnccc1N1CCN(C(=O)CCCOc2ccccc2)CC1 [CBK304677] | 94.8 |
| COC(=O)c1ccccc1NC(=O)CSCc1ccc(Cl)cc1Cl [CBK131712] | 86.2 |
| COCC(=O)NC[C@H]1C[C@@H]2CCN1C[C@@H]2c1cc(-c2ccccc2)nc(C)n1 [CBK289123] | 89.3 |
| COc1ccc(-c2cc(C(=O)NCCS(C)(=O)=O)cnc2-c2ccc(Cl)cc2)cc1 [CBK037620] | 111 |
| O=C1CC(Sc2ccccc2)C(=O)N1c1ccc(Cc2ccc(N3C(=O)CC(Sc4ccccc4)C3=O)cc2)cc1 (stereo not shown) [CBK263797] | 110 |
| CN(C)C(=O)CN1CCN(CCc2ccccc2)CC1 [CBK126455] | 98.8 |
| O=C(CN(c1ccccc1)S(=O)(=O)c1ccccc1[N+](=O)[O-])Nc1ccc(I)cc1 [CBK263755] | 58.3 |
| O=C(CSc1nc2ccccc2nc1N1CCCC1)N1CCN(c2ccccc2)CC1 [CBK293977] | 86.5 |
| Cc1cccc(C)c1NC(=O)C(C)Sc1nc2ccccc2c(=O)n1CC1CCCO1 (stereo not shown) [CBK068151] | 95 |
| CN(C)CCN(C)c1ccc(-c2ccc(F)c(Cl)c2)cn1 [CBK036979] | 96.8 |
| CCOc1cc(NC2CCN(C(=O)CC3(O)CCCCC3)CC2)ncn1 [CBK304141] | 81.6 |
| Cc1cc(C)nc(NC(=O)NS(=O)(=O)Nc2ccccc2Cl)n1 [CBK260912] | 102 |
| Cc1nc(CC(=O)N2CCC[C@@H]3[C@H]2CCCCc2ccccc2OCC(=O)N3C)cs1 [CBK292091] | 113 |
| Cc1cc(N2CCN(C(=O)c3c[nH]c(=O)[nH]3)CC2)nc(C(C)C)n1 [CBK296681] | 111 |

| Structure (SMILES) | viability at 28.5 h, 10 µM [%] |
| --- | --- |
| N[C@H]1CO[C@H]2[C@@H]1OC[C@@H]2n1cc(-c2ccccc2)nn1 [CBK289502] | 81.6 |
| CCCc1nnc(SCC(=O)Nc2ccc(CN3CCOCC3)cc2)[nH]1 [CBK305583] | 82.4 |
| OC1CC(c2cc(NCCc3nc4ccccc4o3)ncn2)C1 (stereo not shown) [CBK306573] | 99.9 |
| O=C(COC(=O)c1cc(O)nc2ccccc12)c1ccc(Br)cc1 [CBK262125] | 103 |
| CN(CC(=O)O)C(=O)c1ccc(S(=O)(=O)N2CCCC2)cc1 [CBK265724] | 91.8 |
| COC(=O)c1cc(-c2ccccc2)sc1NC(=O)CSc1ncnc2sc3c(c12)CCC3 [CBK265978] | 97.4 |
| Cn1ccc(CN2CCOC(c3nc(C(C)(C)C)cs3)C2)cc1=O (stereo not shown) [CBK305771] | 108 |
| Cc1cc(N2CCCN(C(=O)CCCOc3ccccc3)CC2)ccn1 [CBK307052] | 86.6 |
| CC(CN(C)C)C(=O)c1ccsc1 (stereo not shown) [CBK025906] | 93 |
| O=C1NCCCCC1N1CCS(=O)(=O)CC1 (stereo not shown) [CBK017083] | 99.2 |
| COc1ccc(C)cc1NS(=O)(=O)CC(C)C [CBK111346] | 93.8 |
| Cc1c(C)n(Cc2ccco2)c2ncnc(NC(C)C(=O)O)c12 (stereo not shown) [CBK307561] | 106 |
| CSCCC(NC(=O)c1c(C)oc2c1CCCC2)C(=O)O (stereo not shown) [CBK264029] | 82 |
| O=C(NCc1cccs1)C1(c2ccccc2)CCCC1 [CBK149533] | 103 |
| COc1ccc(CC(=O)Nc2ccc3n(c2=O)C[C@H]2C[C@@H]3CN(C(C)=O)C2)cc1 [CBK289203] | 99.1 |
| O=C(O)c1ccc(CSc2nc(-c3ccccc3)cc(C(F)(F)F)n2)o1 [CBK269514] | 105 |
| COc1ccc(C(NC(=O)N(C(C)C)C(C)C)c2nccn2C)cc1 (stereo not shown) [CBK283568] | 111 |
| CSc1ccccc1CNC(=O)c1cc(Br)cnc1N(C)S(C)(=O)=O [CBK076529] | 96.7 |
| CC1=NN(c2nc(-c3ccc(Br)cc3)cs2)C(=O)C1/N=N/c1ccccc1C(=O)O (stereo not shown) [CBK262440] | 91.8 |
| CC/C(=C\c1sc2ccc3ccccc3c2[n+]1CCCS(=O)[O-])SC [CBK264941] | 107 |
| CCN1CCC(CNS(=O)(=O)c2ccc(N3CCCC3=O)cc2)CC1 [CBK305663] | 101 |
| Clc1ccc(COc2nccnc2OC2CCN(Cc3ccc4c(c3)OCO4)CC2)cc1Cl [CBK083109T] | 86.6 |

| Structure (SMILES) | viability at 28.5 h, 10 µM [%] |
| --- | --- |
| Cc1cc(O)n2nc(CC(=O)NCc3nnc4n3CCCCC4)nc2n1 [CBK306989] | 103 |
| O=C(c1ccc(F)cc1)[C@H]1CCCN(C(=O)C2CC2)C1 [CBK284326] | 90.5 |
| O=S(=O)(/N=C(/Nc1nccs1)c1ccccc1)c1cccs1 [CBK268709] | 83.8 |
| O=C(O)C1C2C=CC(C2)C1C(=O)N1CCN(Cc2ccc(Cl)cc2)CC1 (stereo not shown) [CBK270318] | 83.8 |
| O=C(Cn1cnc(-c2nccs2)n1)N1CCCCCC1 [CBK306165] | 97.5 |
| CS(=O)(=O)N1CC2(CCN(CC3COc4ccccc4O3)CC2)c2ccccc21 (stereo not shown) [CBK115461T] | 101 |
| Clc1ccc(-c2cc(N3CCN(c4ccccn4)CC3)ncn2)cc1 [CBK091085] | 112 |
| c1nc(Sc2nccs2)cc(N2CCCC2)n1 [CBK093748] | 100 |
| c1ccc2c(c1)CCN(Cc1ncc[nH]1)C2 [CBK126402] | 94.7 |
| CN(CC(=O)N1CCCCC1)S(=O)(=O)c1cc(Cl)ccc1Cl [CBK091826] | 78.9 |
| Cc1ccc(S(=O)(=O)NC(Cc2c[nH]c3ccccc23)C(=O)O)cc1 (stereo not shown) [CBK260966] | 103 |
| CC(C)(C)C(=O)N1CCc2c([nH]c3ccccc23)C12CCNC2 (stereo not shown) [CBK059462] | 97.5 |
| CCC1(C)CC(=O)c2cc(NC(=O)N3CCc4n[nH]cc4C3)ccc2O1 (stereo not shown) [CBK306846] | 90.3 |
| COc1ccccc1CC(=O)N1CC[C@@H]2NC(=O)[C@H]3C[C@H](NC(=O)C4CC4)CN3C(=O)[C@H]21 [CBK289267] | 103 |
| CCc1nnc(NS(=O)(=O)c2ccc(NC(=S)Nc3ccc(F)cc3)cc2)s1 [CBK050037] | 89.7 |
| O=C(O)C1CC=CCC1C(=O)NCc1ccc2c(c1)OCO2 (stereo not shown) [CBK264209] | 96.4 |
| CCOC(=O)c1cccnc1-c1cccc(C(N)=O)c1 [CBK149239] | 96 |
| Cc1nn(C)cc1S(=O)(=O)N1CCn2cccc2C1C(C)C (stereo not shown) [CBK282787] | 99.8 |
| O=C(COc1cccc(Cl)c1)NNC(=S)Nc1ccccc1 [CBK267180] | 88.4 |
| c1cnc2[nH]c(C3CCCC3)c(CN3CCOCC3)c2c1 [CBK285337] | 77.5 |
| O=C(O)CCC(NC(=O)c1ccc(-c2ccc(Cl)cc2)s1)C(=O)O (stereo not shown) [CBK295171] | 92.9 |
| O=C(Nc1ccc(Cc2ccncc2)cc1)c1ccc(CSc2ccc(Cl)cc2)cc1 [CBK262526] | 86.9 |

| Structure (SMILES) | viability at 28.5 h, 10 µM [%] |
| --- | --- |
| CCN(CC)C(=O)CN1C(=O)N2CCCN=C2c2ccc(Cl)cc21 [CBK284386] | 91.7 |
| Cc1ccc(Nc2nc(O)ns2)cc1 [CBK026011] | 81 |
| Cn1cc(N2CCCC(NC(=O)Nc3cccc(C#N)c3)C2)cn1 (stereo not shown) [CBK305179] | 91.3 |
| Cc1cc(NS(=O)(=O)c2ccc(OCCNS(C)(=O)=O)cc2)no1 [CBK268530] | 102 |
| COc1cccc(NC(=O)CN(c2cccc(C(C)=O)c2)S(C)(=O)=O)c1 [CBK267502] | 111 |
| Cc1cc2c(cc3c(=O)n(CC(=O)N4CCCC4)nc(C)n32)s1 [CBK284065] | 92.4 |
| COc1cc(CN2CCN(Cc3cccc([N+](=O)[O-])c3)CC2)c([N+](=O)[O-])cc1OC [CBK263111] | 99.9 |
| FC(F)(F)c1cccc(-c2cn3ccnc3c(NCCc3ccccn3)n2)c1 [CBK066491] | 95.4 |
| Cc1nccn1C(=O)NC1CCCCC1 [CBK019187] | 81.8 |
| COc1ccc(S(=O)(=O)Nc2ccc(S(=O)(=O)Nc3nccs3)cc2)c([N+](=O)[O-])c1 [CBK266801] | 95.6 |
| O=C(O)/C=C/c1cn(-c2ccccc2)nc1-c1cccs1 [CBK263119] | 102 |
| CC1(C)CC(=O)c2sc(NC(=O)C3COc4ccccc4O3)nc2C1 (stereo not shown) [CBK144104] | 112 |
| CCOc1ccc(NC(=O)Nc2ccc(CC(=O)O)cc2)cc1 [CBK266945] | 112 |
| Sc1nnc(-c2ccncc2)n1/N=C/c1cccnc1 [CBK265336] | 96.6 |
| Cc1cc(NC(=O)c2ccc(C(C)(C)C)cc2)nc2c1c(=O)oc1ccccc12 [CBK291200] | 120 |
| Cc1ccc(OCC(=O)Nc2sc(C)c(C)c2C#N)c([N+](=O)[O-])c1 [CBK268162] | 101 |
| CC(Cn1cnc2ccccc21)C(=O)N1CCCCC1CN(C)C (stereo not shown) [CBK282191] | 106 |
| O=C(CN1CCCCC1)NN(Cc1ccccc1)c1ccccc1 [CBK261521G] | 103 |
| COc1cccc2c1cc(C(=O)NC1CCCN(C)C1)n2C (stereo not shown) [CBK283266] | 90.2 |
| O=C(NC(c1ccc(Cl)cc1)c1ccsc1)C1CCN(C(=O)Oc2ccc(Cl)cc2)CC1 (stereo not shown) [CBK060044] | 88.5 |
| Cc1ccc(N(CCc2cc(C(F)(F)F)cc(C(F)(F)F)c2)C(=O)CN)cc1NC(=O)CN(C)C [CBK003630T] | 84.5 |
| O=C(c1ccc(NS(=O)(=O)c2ccccc2)cc1)N1CCN(Cc2ccc3c(c2)OCO3)CC1 [CBK267957] | 102 |
